Assays:
[1] = Pharmacokinetic profiles in rats; format: in vivo; details: bioavailability
Protocol: The compounds disclosed herein are assessed in pharmacokinetic studies in mice, rats, dogs or monkeys. The compounds are administered as a water solution, 2% HPMC+1% TWEEN® 80 in water solution, 5% DMSO+5% solutol in saline, 4% MC suspension or capsule. For the intravenous administration, the animals are generally given at 1 or 2 mg/kg dose. For the oral (p.o.) dosing, mice and rats are generally given 5 or 10 mg/kg dose, and dogs and monkeys are generally given 10 mg/kg dose. The blood samples (0.3 mL) are drawn at 0.25, 0.5, 1.0, 2.0, 3.0, 4.0, 6.0, 8.0, 12 and 24 h time points or 0.083, 0.25, 0.5, 1.0, 2.0, 4.0, 6.0, 8.0 and 24 h time points and centrifuged at 3,000 or 4000 rpm for 2 to 10 min. The plasma solutions are collected, and stored at −20° C. or −70° C. until analyzed by LC/MS/MS as described above.

[2] = Compound stability in human liver microsomes; format: in vitro ADME; details: 37° C.
Protocol: Human or rat liver microsomes incubations were conducted in duplicate in polypropylene tubes. The typical incubation mixtures consisted of human or rat liver microsomes (0.5 mg protein/mL), compounds of interest (5 μM) and NADPH (1.0 mM) in a total volume of 200 μL potassium phosphate buffer (PBS, 100 mM, pH 7.4). Compounds were dissolved in DMSO and diluted with PBS such that the final concentration of DMSO was 0.05%. The enzymatic reactions were commenced with the addition of protein after a 3-min preincubation and incubated in a water bath open to the air at 37° C. Reactions were terminated at various time points (0, 5, 10, 15, 30, 60 min) by adding equal volume of ice-cold acetonitrile. The samples were stored at −80° C. until LC/MS/MS assays.
The concentrations of compounds in the incubation mixtures of human or rat liver microsomes were determined by a LC/MS/MS method. The ranges of the linearity in the concentration range were determined for each tested compounds.
A parallel incubation was performed using denatured microsomes as the negative control, and reactions were terminated at various time points (0, 15, 60 min) after incubation at 37° C.
Dextromethorphan (70 μM) was selected as the positive control, and reactions were terminated at various time points (0, 5, 10, 15, 30, 60 min) after incubation at 37° C. […]

Row | Structure (SMILES) | F [1] | T1/2 [2]
1 | O=C(Nc1ccc(Oc2ccnc(NC(=O)C3CC3)c2)cc1)c1c2n(n(-c3ccccc3)c1=O)CCC2 [Ex. 2, N-(4-((2-(cyclopropanecarboxamido)pyridin-4-yl)oxy)phenyl)-2-oxo-1-phenyl-2,4,5,6-tetrahydro-1H-pyrrolo[1,2-b]pyrazole-3-carboxamide] | 68.1% | –
2 | CC(=O)Nc1cc(Oc2ccc(NC(=O)c3c4n(n(-c5ccccc5)c3=O)CCC4)cc2)ccn1 [Ex. 3, N-(4-((2-acetamidopyridin-4-yl)oxy)phenyl)-2-oxo-1-phenyl-2,4,5,6-tetrahydro-1H-pyrrolo[1,2-b]pyrazole-3-carboxamide] | 94.5% | –
3 | O=C(Nc1ccc(Oc2ccnc(NC(=O)C3CC3)c2)cn1)c1c2n(n(-c3ccccc3)c1=O)CCC2 [Ex. 14, N-(5-((2-(cyclopropanecarboxamido)pyridin-4-yl)oxy)pyridin-2-yl)-2-oxo-1-phenyl-2,4,5,6-tetrahydro-1H-pyrrolo[1,2-b]pyrazole-3-carboxamide] | 87.9% | –
4 | O=C(Nc1ccc(Oc2ccnc(NC(=O)C3CC3)c2)cc1)c1c2n(n(-c3ccccc3)c1=O)CCOC2 [Ex. 19, N-(4-((2-(cyclopropanecarboxamido)pyridin-4-yl)oxy)phenyl)-2-oxo-1-phenyl-2,4,6,7-tetrahydro-1H-pyrazolo[5,1-c][1,4]oxazine-3-carboxamide] | 66.7% | ∞
5 | Nc1cc(Oc2ccc(NC(=O)c3c4n(n(-c5ccccc5)c3=O)CCC4)cc2)ccn1 [Ex. 1, N-(4-((2-aminopyridin-4-yl)oxy)phenyl)-2-oxo-1-phenyl-2,4,5,6-tetrahydro-1H-pyrrolo[1,2-b]pyrazole-3-carboxamide] | 163.3% | –
6 | CC(=O)Nc1cc(Oc2ccc(NC(=O)c3c4n(n(-c5ccccc5)c3=O)CCOC4)nc2)ccn1 [Ex. 12, N-(5-((2-acetamidopyridin-4-yl)oxy)pyridin-2-yl)-2-oxo-1-phenyl-2,4,6,7-tetrahydro-1H-pyrazolo[5,1-c][1,4]oxazine-3-carboxamide] | 72.1% | ∞
